Measurements published in patent US20230404998A1, “Combination Therapies for Treating Cancer” (ASCENTAGE PHARMA (SUZHOU) CO., LTD., priority 2020, published 2023).

Target: VEGFR1 (Homo sapiens, UniProt P17948)
Assay: Cell-free kinase assay VEGFR1
Format: biochemical

Sequence of VEGFR1 (P17948 27-1338, species assumed): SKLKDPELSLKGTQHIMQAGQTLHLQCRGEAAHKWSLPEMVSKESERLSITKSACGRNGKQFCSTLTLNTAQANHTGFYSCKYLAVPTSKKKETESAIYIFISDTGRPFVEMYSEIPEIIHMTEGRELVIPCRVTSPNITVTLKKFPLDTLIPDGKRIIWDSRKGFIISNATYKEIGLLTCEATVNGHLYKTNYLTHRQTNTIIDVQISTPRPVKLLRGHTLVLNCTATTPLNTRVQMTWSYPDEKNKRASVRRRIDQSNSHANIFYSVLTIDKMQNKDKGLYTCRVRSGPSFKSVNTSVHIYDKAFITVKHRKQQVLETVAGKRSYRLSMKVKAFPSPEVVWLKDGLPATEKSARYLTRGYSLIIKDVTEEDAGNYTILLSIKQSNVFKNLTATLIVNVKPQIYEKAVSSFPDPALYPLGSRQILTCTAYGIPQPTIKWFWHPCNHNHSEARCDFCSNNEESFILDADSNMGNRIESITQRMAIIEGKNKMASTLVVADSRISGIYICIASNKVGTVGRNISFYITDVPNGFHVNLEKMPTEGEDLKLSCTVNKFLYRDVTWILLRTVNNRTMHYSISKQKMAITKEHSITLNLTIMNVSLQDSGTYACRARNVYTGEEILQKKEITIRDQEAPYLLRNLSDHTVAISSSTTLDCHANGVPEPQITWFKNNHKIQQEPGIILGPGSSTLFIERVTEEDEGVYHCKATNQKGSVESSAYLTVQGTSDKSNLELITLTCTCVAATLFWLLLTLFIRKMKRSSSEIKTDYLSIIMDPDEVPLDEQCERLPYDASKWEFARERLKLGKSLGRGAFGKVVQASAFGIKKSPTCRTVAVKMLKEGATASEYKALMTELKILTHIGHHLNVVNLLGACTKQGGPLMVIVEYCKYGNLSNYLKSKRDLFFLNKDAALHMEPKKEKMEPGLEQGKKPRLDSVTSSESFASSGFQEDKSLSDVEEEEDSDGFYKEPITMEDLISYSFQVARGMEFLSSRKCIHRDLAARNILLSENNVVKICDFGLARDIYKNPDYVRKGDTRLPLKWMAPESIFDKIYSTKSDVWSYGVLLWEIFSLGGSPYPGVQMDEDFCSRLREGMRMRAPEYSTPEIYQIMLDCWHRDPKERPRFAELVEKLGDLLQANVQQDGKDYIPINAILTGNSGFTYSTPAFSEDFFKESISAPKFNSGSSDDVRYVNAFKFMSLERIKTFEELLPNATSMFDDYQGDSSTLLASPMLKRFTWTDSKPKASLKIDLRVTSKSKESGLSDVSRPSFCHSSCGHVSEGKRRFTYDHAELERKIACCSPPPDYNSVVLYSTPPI

## Cc1ccc(C(=O)Nc2ccc(CN3CCN(C)CC3)c(C(F)(F)F)c2)cc1C#Cc1cnc2[nH]ncc2c1 [HQP1351, 3-(2-(1H-pyrazolo[3,4-b]pyridin-5-yl)ethynyl)-4-methyl-N-(4-((4-methylpiperazin-1-yl)methyl)-3-(trifluoromethyl)phenyl)-benzamide]
  IC50: 4.2 nM
